Measured values: US9856279B2 (AGIOS PHARMACEUTICALS, INC, priority 2011, dated 2018)

target: IDH1 R132H (Homo sapiens, UniProt O75874, R132H); assay: Assay for IDH1 R132H inhibitors (NADPH/aKG, resazurin detection); assay type: biochemical; conditions: enzyme assay of Example 12; read-out: IDH1R132H IC50
How it was run: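 Read-out is resorufin fluorescence (Ex544/Em590) 5 min after adding a 30 μM resazurin detection mix. Before that, mutant enzyme (0.2 μg/ml in its mix) ran 50 min at room temperature with compound, 8 uM NADPH and 2 mM aKG (mix levels) in Tris pH 7.5 with NaCl, MgCl2, BSA.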

Chain of IDH1 R132H (O75874 whole entry R132H): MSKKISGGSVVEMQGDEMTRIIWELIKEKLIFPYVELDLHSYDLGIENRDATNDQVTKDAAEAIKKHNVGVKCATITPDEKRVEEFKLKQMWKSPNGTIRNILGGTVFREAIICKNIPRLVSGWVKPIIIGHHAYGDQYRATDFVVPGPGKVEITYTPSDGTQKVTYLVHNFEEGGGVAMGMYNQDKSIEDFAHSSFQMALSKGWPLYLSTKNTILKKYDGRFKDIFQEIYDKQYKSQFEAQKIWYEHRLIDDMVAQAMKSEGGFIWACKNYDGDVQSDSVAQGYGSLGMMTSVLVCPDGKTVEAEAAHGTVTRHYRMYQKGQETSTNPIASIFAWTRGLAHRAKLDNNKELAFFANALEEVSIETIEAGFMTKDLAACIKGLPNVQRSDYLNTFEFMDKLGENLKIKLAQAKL

First: C[C@@H]1CN(c2nc(C3CC3)c(-c3cccc4c3CN(C)C4=O)cc2C#N)CCN1C(=O)C1CC1 [Compound 461, (R)-2-(4-(cyclopropanecarbonyl)-3-methylpiperazin-1-yl)-6-cyclopropyl-5-(2-methyl-1-oxoisoindolin-4-yl)nicotinonitrile]
Second: C[C@@H]1CN(c2nc(C3CC3)c(-c3cccc4ncoc34)cc2C#N)CCN1C(=O)C1CC1 [Compound 482, (R)-5-(benzo[d]oxazol-7-yl)-2-(4-(cyclopropanecarbonyl)-3-methylpiperazin-1-yl)-6-cyclopropylnicotinonitrile]
The IC50 of the first is higher: 0.5 to 1 µM for the first, under 0.5 µM for the second.

N#Cc1cc(-c2cccc3c2CNC3=O)c(C2CC2)nc1N1CCN(C(=O)C2CC2)[C@H](C2CC2)C1 [Compound 464, (R)-2-(4-(Cyclopropanecarbonyl)-3-cyclopropylpiperazin-1-yl)-6-cyclopropyl-5-(1-oxoisoindolin-4-yl)nicotinonitrile] and N#Cc1cc(-c2cccc3c2NC(=O)C3=O)c(C2CC2)nc1N1CCN(C(=O)C2CC2)[C@H](C2CC2)C1 [Compound 513, (R)-2-(4-(cyclopropanecarbonyl)-3-cyclopropylpiperazin-1-yl)-6-cyclopropyl-5-(2,3-dioxoindolin-7-yl)nicotinonitrile] fall in the same range of IC50: 0.5 to 1 µM for the first, 0.5 to 1 µM for the second.

First: C[C@@H]1CN(c2nc(C3CC3)c(-c3ccc4ncoc4c3)cc2C#N)CCN1C(=O)C1CC1 [Compound 467, (R)-5-(benzo[d]oxazol-6-yl)-2-(4-(cyclopropanecarbonyl)-3-methylpiperazin-1-yl)-6-cyclopropylnicotinonitrile]
Second: N#Cc1cc(-c2ccc3ncsc3c2)c(C2CC2)nc1N1CCN(C(=O)C2CC2)[C@H](C2CC2)C1 [Compound 487, (R)-5-(benzo[d]thiazol-6-yl)-2-(4-(cyclopropanecarbonyl)-3-cyclopropylpiperazin-1-yl)-6-cyclopropylnicotinonitrile]
The IC50 of the first is higher: 0.5 to 1 µM for the first, under 0.5 µM for the second. The second is the more potent here.

Compared with Cc1cc2c(-c3cc(C#N)c(N4CCN(C(=O)CC(F)(F)F)[C@H](C5CC5)C4)nc3C3CC3)cccc2cn1 [Compound 471, (R)-6-cyclopropyl-2-(3-cyclopropyl-4-(3,3,3-trifluoropropanoyl)piperazin-1-yl)-5-(3-methylisoquinolin-5-yl)nicotinonitrile], COC(=O)N1CCN(c2nc(C3CC3)c(-c3cccc4cnccc34)cc2C#N)C[C@H]1C1CC1 [Compound 489, (R)-methyl 4-(3-cyano-6-cyclopropyl-5-(isoquinolin-5-yl)pyridin-2-yl)-2-cyclopropylpiperazine-1 carboxylate] is higher in IC50: under 0.5 µM for the first, 0.5 to 1 µM for the second. The first is the more potent here.

COCCC(=O)N1CCN(c2nc(C3CC3)c(-c3cnc(OC)c4ccccc34)cc2C#N)C[C@H]1C [Compound 474, (R)-6-cyclopropyl-5-(1-methoxy-isoquinolin-4-yl)-2-[4-(3-methoxy-propionyl)-3-methyl-piperazin-1-yl]-nicotinonitrile] and C[C@@H]1CN(c2nc(C3CC3)c(-c3cccc4cnccc34)cc2C#N)CCN1C(=O)[C@@H]1C[C@H]1CO [Compound 505, 6-cyclopropyl-2-((R)-4-((1R,2R)-2-(hydroxymethyl)cyclopropanecarbonyl)-3-methylpiperazin-1-yl)-5-(isoquinolin-5-yl)nicotinonitrile] cannot be ordered by IC50: under 0.5 µM for the first, under 0.5 µM for the second.

N#Cc1cc(-c2cccc3cnccc23)c(C2CC2)nc1N1CCN(C(=O)C2CC2)CC(F)C1 (stereo not drawn) [Compound 477, 2-(4-(cyclopropanecarbonyl)-6-fluoro-1,4-diazepan-1-yl)-6-cyclopropyl-5-(isoquinolin-5-yl)nicotinonitrile] and CC1CN(c2nc(C3CC3)c(-c3cccc4cnccc34)cc2C#N)CC(F)CN1C(=O)C1CC1 (stereo not drawn) [Compound 484, 2-(4-(cyclopropanecarbonyl)-6-fluoro-3-methyl-1,4-diazepan-1-yl)-6-cyclopropyl-5-(isoquinolin-5-yl)nicotinonitrile] fall in the same range of IC50: 0.5 to 1 µM for the first, 0.5 to 1 µM for the second.

Cc1c(C#N)c(N2CCN(C(=O)C3CC3)[C@H](C3CC3)C2)nc(C2CC2)c1-c1cn[nH]c1 [Compound 478, (R)-2-(4-(cyclopropanecarbonyl)-3-cyclopropylpiperazin-1-yl)-6-cyclopropyl-4-methyl-5-(1H-pyrazol-4-yl)nicotinonitrile] and N#Cc1cc(-c2cn[nH]c2)c(C2CC2)nc1N1CCN(C(=O)C2CC2)[C@H](C2CC2)C1 [Compound 479, (R)-2-(4-(cyclopropanecarbonyl)-3-cyclopropylpiperazin-1-yl)-6-cyclopropyl-5-(1H-pyrazol-4-yl)nicotinonitrile] fall in the same range of IC50: 0.5 to 1 µM for the first, 0.5 to 1 µM for the second.

N#CCn1cc(-c2cc(C#N)c(N3CCN(C(=O)C4CC4)[C@H](C4CC4)C3)nc2C2CC2)cn1 [Compound 486, (R)-5-(1-(cyanomethyl)-1H-pyrazol-4-yl)-2-(4-(cyclopropanecarbonyl)-3-cyclopropylpiperazin-1-yl)-6-cyclopropylnicotinonitrile] and N#Cc1cc(-c2cnn(CCO)c2)c(C2CC2)nc1N1CCN(C(=O)C2CC2)[C@H](C2CC2)C1 [Compound 490, (R)-2-(4-(cyclopropanecarbonyl)-3-cyclopropylpiperazin-1-yl)-6-cyclopropyl-5-(1-(2-hydroxyethyl)-1H-pyrazol-4-yl)nicotinonitrile] fall in the same range of IC50: 0.5 to 1 µM for the first, 0.5 to 1 µM for the second.

N#Cc1cc(-c2cnn(C3CCC(O)C3)c2)c(C2CC2)nc1N1CCN(C(=O)C2CC2)[C@H](C2CC2)C1 (stereo partly drawn) [Compound 493, 2-((R)-4-(cyclopropanecarbonyl)-3-cyclopropylpiperazin-1-yl)-6-cyclopropyl-5-(1-(3-hydroxycyclopentyl)-1H-pyrazol-4-yl)nicotinonitrile] and CSCn1cc(-c2cc(C#N)c(N3CCN(C(=O)C4CC4)[C@H](C4CC4)C3)nc2C2CC2)cn1 [Compound 510, (R)-2-(4-(cyclopropanecarbonyl)-3-cyclopropylpiperazin-1-yl)-6-cyclopropyl-5-(1-((methylthio)methyl)-1H-pyrazol-4-yl)nicotinonitrile] fall in the same range of IC50: 0.5 to 1 µM for the first, 0.5 to 1 µM for the second.

N#Cc1cncc(-c2cc(C#N)c(N3CCN(C(=O)C4CC4)[C@H](C4CC4)C3)nc2C2CC2)c1 [Compound 494, (R)-6-(4-(cyclopropanecarbonyl)-3-cyclopropylpiperazin-1-yl)-2-cyclopropyl-[3,3′-bipyridine]-5,5′-dicarbonitrile] and N#Cc1cc(-c2cnc3cnccn23)c(C2CC2)nc1N1CCN(C(=O)C2CC2)[C@H](C2CC2)C1 [Compound 503, (R)-2-(4-(cyclopropanecarbonyl)-3-cyclopropylpiperazin-1-yl)-6-cyclopropyl-5-(imidazo[1,2-a]pyrazin-3-yl)nicotinonitrile] cannot be ordered by IC50: under 0.5 µM for the first, under 0.5 µM for the second.

First: N#Cc1cc(-c2cnnc3ccccc23)c(C2CC2)nc1N1CCN(C(=O)C2CC2)[C@H](C2CC2)C1 [Compound 495, (R)-5-(cinnolin-4-yl)-2-(4-(cyclopropanecarbonyl)-3-cyclopropylpiperazin-1-yl)-6-cyclopropylnicotinonitrile]
Second: Cc1nccc2c(-c3cc(C#N)c(N4CCN(C(=O)C5CC5)[C@H](C5CC5)C4)nc3C3CC3)cccc12 [Compound 497, (R)-2-(4-(cyclopropanecarbonyl)-3-cyclopropylpiperazin-1-yl)-6-cyclopropyl-5-(1-methylisoquinolin-5-yl)nicotinonitrile]
The IC50 of the first is higher: 0.5 to 1 µM for the first, under 0.5 µM for the second. The second is the more potent here.

N#Cc1cc(-c2cnn(CC(N)=O)c2)c(C2CC2)nc1N1CCN(C(=O)C2CC2)[C@H](C2CC2)C1 [Compound 501, (R)-2-(4-(5-cyano-6-(4-(cyclopropanecarbonyl)-3-cyclopropylpiperazin-1-yl)-2-cyclopropylpyridin-3-yl)-1H-pyrazol-1-yl)acetamide] and CS(=O)(=O)n1cc(-c2cc(C#N)c(N3CCN(C(=O)C4CC4)[C@H](C4CC4)C3)nc2C2CC2)cn1 [Compound 502, (R)-2-(4-(cyclopropanecarbonyl)-3-cyclopropylpiperazin-1-yl)-6-cyclopropyl-5-(1-(methylsulfonyl)-1H-pyrazol-4-yl)nicotinonitrile] fall in the same range of IC50: 0.5 to 1 µM for the first, 0.5 to 1 µM for the second.

N#Cc1cc(-c2ccc3c(c2)C(=O)C(=O)N3)c(C2CC2)nc1N1CCN(C(=O)C2CC2)[C@H](C2CC2)C1 [Compound 504, (R)-2-(4-(cyclopropanecarbonyl)-3-cyclopropylpiperazin-1-yl)-6-cyclopropyl-5-(2,3-dioxoindolin-5-yl)nicotinonitrile] and N#Cc1cc(-c2ccnc(Cl)c2F)c(C2CC2)nc1N1CCN(C(=O)C2CC2)[C@H](C2CC2)C1 [Compound 509, (R)-2′-chloro-6-(4-(cyclopropanecarbonyl)-3-cyclopropylpiperazin-1-yl)-2-cyclopropyl-3′-fluoro-3,4′-bipyridine-5-carbonitrile] fall in the same range of IC50: 0.5 to 1 µM for the first, 0.5 to 1 µM for the second.

CN(C)c1nccc(-c2cc(C#N)c(N3CCN(C(=O)C4CC4)[C@H](C4CC4)C3)nc2C2CC2)n1 [Compound 506, (R)-2-(4-(cyclopropanecarbonyl)-3-cyclopropylpiperazin-1-yl)-6-cyclopropyl-5-(2-(dimethylamino)pyrimidin-4-yl)nicotinonitrile] and N#Cc1cc(-c2ccnc(N)n2)c(C2CC2)nc1N1CCN(C(=O)C2CC2)[C@H](C2CC2)C1 [Compound 507, (R)-5-(2-aminopyrimidin-4-yl)-2-(4-(cyclopropanecarbonyl)-3-cyclopropylpiperazin-1-yl)-6-cyclopropylnicotinonitrile] fall in the same range of IC50: 0.5 to 1 µM for the first, 0.5 to 1 µM for the second.

First: N#Cc1cc(-c2ccnc(NCCO)n2)c(C2CC2)nc1N1CCN(C(=O)C2CC2)[C@H](C2CC2)C1 [Compound 512, (R)-2-(4-(cyclopropanecarbonyl)-3-cyclopropylpiperazin-1-yl)-6-cyclopropyl-5-(2-(2-hydroxyethylamino)pyrimidin-4-yl)nicotinonitrile]
Second: N#Cc1cc(-c2cccc3cnccc23)c(C2CC2)nc1N1CCN(C(=O)CCC=O)[C@H](C2CC2)C1 [Compound 519, (R)-6-cyclopropyl-2-(3-cyclopropyl-4-(4-oxobutanoyl)piperazin-1-yl)-5-(isoquinolin-5-yl)nicotinonitrile]
The IC50 of the first is lower: under 0.5 µM for the first, 0.5 to 1 µM for the second.
